Data published in ChEMBL document CHEMBL5291721, “A preclinical secondary pharmacology resource illuminates target-adverse drug reaction associations of marketed drugs” (Nat Commun, 2023).

Columns and labels:
[1] = molecular target: T1, Alpha-1A adrenergic receptor (Homo sapiens, UniProt P35348); format: functional, cell-based
T1 sequence (P35348 whole entry): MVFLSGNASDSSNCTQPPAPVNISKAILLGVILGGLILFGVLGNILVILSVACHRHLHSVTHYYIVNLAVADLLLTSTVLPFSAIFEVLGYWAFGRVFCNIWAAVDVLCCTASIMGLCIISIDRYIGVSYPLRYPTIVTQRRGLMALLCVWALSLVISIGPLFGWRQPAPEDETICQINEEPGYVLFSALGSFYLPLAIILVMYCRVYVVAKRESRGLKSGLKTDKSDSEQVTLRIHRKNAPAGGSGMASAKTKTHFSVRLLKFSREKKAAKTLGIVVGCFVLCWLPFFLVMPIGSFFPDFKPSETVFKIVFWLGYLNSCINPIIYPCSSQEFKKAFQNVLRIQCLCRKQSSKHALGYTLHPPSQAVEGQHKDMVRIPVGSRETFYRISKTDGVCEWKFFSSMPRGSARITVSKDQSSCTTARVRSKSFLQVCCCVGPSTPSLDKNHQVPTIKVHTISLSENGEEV

Progesterone receptor = molecular target: T2, Progesterone receptor (Homo sapiens, UniProt P06401)
T2 sequence (P06401 whole entry): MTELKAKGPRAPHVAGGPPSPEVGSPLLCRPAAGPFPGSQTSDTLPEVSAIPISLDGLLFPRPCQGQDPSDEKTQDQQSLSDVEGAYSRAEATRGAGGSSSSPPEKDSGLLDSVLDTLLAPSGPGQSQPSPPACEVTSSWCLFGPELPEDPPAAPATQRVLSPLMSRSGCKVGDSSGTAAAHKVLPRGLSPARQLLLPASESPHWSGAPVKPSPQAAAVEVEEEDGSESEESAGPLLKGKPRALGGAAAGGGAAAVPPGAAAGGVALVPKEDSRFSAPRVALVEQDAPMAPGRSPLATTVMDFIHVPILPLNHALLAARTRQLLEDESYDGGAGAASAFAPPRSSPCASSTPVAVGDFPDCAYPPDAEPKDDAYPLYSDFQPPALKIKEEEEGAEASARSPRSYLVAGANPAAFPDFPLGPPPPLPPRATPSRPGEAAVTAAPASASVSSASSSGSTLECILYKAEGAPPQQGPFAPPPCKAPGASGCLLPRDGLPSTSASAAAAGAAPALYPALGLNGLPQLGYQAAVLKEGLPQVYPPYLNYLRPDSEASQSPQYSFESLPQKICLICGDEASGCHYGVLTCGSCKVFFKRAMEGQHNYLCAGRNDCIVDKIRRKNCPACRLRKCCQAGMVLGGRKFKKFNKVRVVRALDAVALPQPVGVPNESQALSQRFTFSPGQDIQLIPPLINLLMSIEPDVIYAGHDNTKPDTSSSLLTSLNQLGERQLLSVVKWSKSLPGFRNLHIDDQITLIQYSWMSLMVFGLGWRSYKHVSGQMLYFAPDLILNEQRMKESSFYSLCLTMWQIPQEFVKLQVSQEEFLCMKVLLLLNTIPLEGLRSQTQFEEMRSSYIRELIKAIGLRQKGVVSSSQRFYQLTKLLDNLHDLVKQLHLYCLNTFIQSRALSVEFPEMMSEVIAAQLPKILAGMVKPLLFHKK

D(1A) dopamine receptor = D(1A) dopamine receptor (Homo sapiens, UniProt P21728)
Chain of D(1A) dopamine receptor (P21728 whole entry): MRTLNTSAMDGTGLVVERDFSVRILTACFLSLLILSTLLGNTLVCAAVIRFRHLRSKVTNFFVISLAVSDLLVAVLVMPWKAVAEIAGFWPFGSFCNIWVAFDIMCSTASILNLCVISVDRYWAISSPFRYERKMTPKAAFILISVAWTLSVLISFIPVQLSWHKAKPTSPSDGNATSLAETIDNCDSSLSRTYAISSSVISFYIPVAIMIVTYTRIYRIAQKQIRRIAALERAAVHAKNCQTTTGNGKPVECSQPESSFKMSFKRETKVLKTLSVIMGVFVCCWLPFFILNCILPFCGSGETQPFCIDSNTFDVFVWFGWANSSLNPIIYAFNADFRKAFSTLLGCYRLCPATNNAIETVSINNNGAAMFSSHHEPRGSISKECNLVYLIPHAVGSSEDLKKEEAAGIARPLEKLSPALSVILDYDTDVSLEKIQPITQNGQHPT

[2] = molecular target: Beta-1 adrenergic receptor (Homo sapiens, UniProt P08588); format: functional
Chain of Beta-1 adrenergic receptor (P08588 whole entry): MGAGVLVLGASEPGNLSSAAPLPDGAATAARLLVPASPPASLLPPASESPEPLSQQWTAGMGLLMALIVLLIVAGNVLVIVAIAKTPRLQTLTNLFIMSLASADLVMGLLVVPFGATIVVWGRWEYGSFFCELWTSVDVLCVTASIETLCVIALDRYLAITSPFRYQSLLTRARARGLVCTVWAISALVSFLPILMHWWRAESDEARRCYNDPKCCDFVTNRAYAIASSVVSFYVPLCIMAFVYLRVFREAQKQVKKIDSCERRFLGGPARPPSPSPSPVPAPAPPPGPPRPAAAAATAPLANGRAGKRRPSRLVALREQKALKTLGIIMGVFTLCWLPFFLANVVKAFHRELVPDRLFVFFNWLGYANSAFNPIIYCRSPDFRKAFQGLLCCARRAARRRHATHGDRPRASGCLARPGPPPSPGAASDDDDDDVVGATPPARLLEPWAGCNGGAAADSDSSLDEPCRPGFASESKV

Motilin receptor = Motilin receptor (Homo sapiens, UniProt O43193)
Chain of Motilin receptor (O43193 whole entry): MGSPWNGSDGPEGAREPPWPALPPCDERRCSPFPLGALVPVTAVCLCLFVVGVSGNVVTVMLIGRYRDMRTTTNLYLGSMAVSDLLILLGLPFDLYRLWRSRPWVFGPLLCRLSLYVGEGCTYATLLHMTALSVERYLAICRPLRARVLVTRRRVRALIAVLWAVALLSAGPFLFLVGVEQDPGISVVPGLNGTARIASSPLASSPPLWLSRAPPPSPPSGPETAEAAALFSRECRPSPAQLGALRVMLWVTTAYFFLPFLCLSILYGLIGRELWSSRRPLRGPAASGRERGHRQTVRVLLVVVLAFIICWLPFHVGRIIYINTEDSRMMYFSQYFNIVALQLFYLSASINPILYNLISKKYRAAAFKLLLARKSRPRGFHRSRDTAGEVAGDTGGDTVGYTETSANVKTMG

Adenosine receptor A3 = molecular target: T3, Adenosine receptor A3 (Homo sapiens, UniProt P0DMS8)
T3 sequence (P0DMS8 whole entry): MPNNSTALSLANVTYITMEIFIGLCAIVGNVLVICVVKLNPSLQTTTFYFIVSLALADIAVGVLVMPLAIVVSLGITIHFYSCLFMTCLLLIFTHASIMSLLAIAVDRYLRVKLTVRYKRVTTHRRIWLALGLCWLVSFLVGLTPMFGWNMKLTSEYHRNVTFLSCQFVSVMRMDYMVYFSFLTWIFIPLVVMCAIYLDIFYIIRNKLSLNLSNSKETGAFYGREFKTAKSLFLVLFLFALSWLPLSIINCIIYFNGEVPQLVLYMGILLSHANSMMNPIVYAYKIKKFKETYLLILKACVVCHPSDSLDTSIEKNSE

[3] = molecular target: T4, 5-hydroxytryptamine receptor 1A (Homo sapiens, UniProt P08908); format: functional, cell-based
T4 sequence (P08908 whole entry): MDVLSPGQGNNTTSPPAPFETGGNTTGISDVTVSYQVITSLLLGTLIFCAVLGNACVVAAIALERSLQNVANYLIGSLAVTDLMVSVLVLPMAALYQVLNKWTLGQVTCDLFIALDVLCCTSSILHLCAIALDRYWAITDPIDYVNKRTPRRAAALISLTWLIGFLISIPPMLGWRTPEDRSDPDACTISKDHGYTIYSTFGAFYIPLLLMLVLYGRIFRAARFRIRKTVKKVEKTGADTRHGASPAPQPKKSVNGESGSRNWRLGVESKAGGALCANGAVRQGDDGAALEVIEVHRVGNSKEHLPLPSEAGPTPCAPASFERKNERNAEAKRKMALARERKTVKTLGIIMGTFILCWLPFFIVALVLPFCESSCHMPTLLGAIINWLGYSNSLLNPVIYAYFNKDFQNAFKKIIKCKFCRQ
Note: assay procedure not described here.

Compound | AC50 [1] | AC50 (Progesterone receptor) | AC50 (D(1A) dopamine receptor) | AC50 [2] | AC50 (Motilin receptor) | AC50 (Adenosine receptor A3) | AC50 [3]
Cc1cc2c(cc1S(N)(=O)=O)S(=O)(=O)CCC2 | > 30 µM | > 30 µM | > 30 µM | – | – | – | –
C[C@H](N[C@@H](CCc1ccccc1)C(=O)O)C(=O)N1Cc2ccccc2C[C@H]1C(=O)O | > 30 µM | > 30 µM | > 30 µM | – | – | – | –
O=C(O)[C@@H]1C[C@@H](O)CN1 | > 30 µM | > 30 µM | > 30 µM | – | – | – | –
CC1(C)S[C@@H]2[C@H](/N=C/N3CCCCCC3)C(=O)N2[C@H]1C(=O)O [AMDINOCILLIN] | > 30 µM | > 30 µM | > 30 µM | – | – | – | –
CCC1(c2ccc(N)cc2)CCC(=O)NC1=O (centres undefined) [AMINOGLUTETHIMIDE] | – | – | – | > 30 µM | > 30 µM | > 30 µM | –
CC(=O)[C@]1(N)Cc2c(O)c3c(c(O)c2[C@@H](O[C@H]2C[C@H](O)[C@H](O)CO2)C1)C(=O)c1ccccc1C3=O [AMRUBICIN] | 20.1 µM | > 30 µM | > 30 µM | – | – | – | –
NC(=O)[C@@H]1CC[C@@H]2CN1C(=O)N2OS(=O)(=O)O [AVIBACTAM] | > 30 µM | > 30 µM | > 30 µM | – | – | – | –
CC(=O)OC[C@H]1O[C@@H](n2ncc(=O)[nH]c2=O)[C@H](OC(C)=O)[C@@H]1OC(C)=O [AZARIBINE] | > 30 µM | > 30 µM | – | – | – | – | –
CC(Cc1cccc(C(F)(F)F)c1)NCCOC(=O)c1ccccc1 (centres undefined) [BENFLUOREX] | – | – | – | 5.7 µM | > 30 µM | 28 µM | –
CC(C)(C)NC(=O)N[C@H](C(=O)N1C[C@H]2[C@@H]([C@H]1C(=O)NC(CC1CCC1)C(=O)C(N)=O)C2(C)C)C(C)(C)C (some centres undefined) [BOCEPREVIR] | > 30 µM | > 30 µM | > 30 µM | – | – | – | –
NC[C@H]1CC[C@H](C(=O)Oc2ccc(CCC(=O)O)cc2)CC1 [CETRAXATE] | – | > 30 µM | > 30 µM | – | – | – | > 30 µM
C=C1CC[C@H](O)C/C1=C/C=C1\CCC[C@]2(C)[C@@H]([C@H](C)CCCC(C)C)CC[C@@H]12 [CHOLECALCIFEROL] | > 30 µM | – | > 30 µM | – | – | – | –
C[C@H](CCC(=O)O)[C@H]1CC[C@H]2[C@@H]3[C@H](O)C[C@@H]4C[C@H](O)CC[C@]4(C)[C@H]3C[C@H](O)[C@]12C [CHOLIC ACID] | > 30 µM | > 30 µM | > 30 µM | – | – | – | –
Cc1ncc2c(c1O)COC2c1ccc(Cl)cc1 (centres undefined) [CICLETANINE] | > 30 µM | > 30 µM | > 30 µM | – | – | – | –
Cc1cn([C@H]2O[C@@H](CO)[C@H](O)[C@H]2F)c(=O)[nH]c1=O [CLEVUDINE] | > 30 µM | > 30 µM | > 30 µM | – | – | – | –
N#Cc1ccc(Oc2ccc3c(c2)COB3O)cc1 [CRISABOROLE] | > 30 µM | > 30 µM | > 30 µM | – | – | – | –
CC(=O)[C@H]1CC[C@H]2[C@@H]3C=CC4=CC(=O)CC[C@@]4(C)[C@@H]3CC[C@]12C [DYDROGESTERONE] | > 30 µM | – | > 30 µM | – | – | – | –
CC(=O)O[C@H]1Cc2ccccc2N(C(N)=O)c2ccccc21 [ESLICARBAZEPINE ACETATE] | > 30 µM | > 30 µM | > 30 µM | – | – | – | –
CC(O)(P(=O)(O)O)P(=O)(O)O [ETIDRONIC ACID] | > 30 µM | – | > 30 µM | – | – | – | –
Cc1ccc(S(=O)(=O)NC(=O)NC2CCCCC2)cc1 [GLYCYCLAMIDE] | > 30 µM | > 30 µM | > 30 µM | – | – | – | –

Compound | AC50 [1] | AC50 (Progesterone receptor) | AC50 (D(1A) dopamine receptor) | AC50 [2] | AC50 (Motilin receptor) | AC50 (Adenosine receptor A3) | AC50 [3]
CN1CCCN(C(c2ccccc2)c2ccc(Cl)cc2)CC1 (centres undefined) [HOMOCHLORCYCLIZINE] | > 30 µM | > 30 µM | 2.4 µM | – | – | – | –
CC(=O)OCC(=O)[C@@]1(O)CC[C@H]2[C@@H]3CCC4=CC(=O)CC[C@]4(C)[C@H]3[C@@H](O)C[C@@]21C [HYDROCORTISONE ACETATE] | > 30 µM | 7.67 µM | > 30 µM | – | – | – | –
CC(COc1ccccc1)NC(C)C(O)c1ccc(O)cc1 (centres undefined) [ISOXSUPRINE] | > 30 µM | > 30 µM | 9.44 µM | – | – | – | –
O=C(CCC/C=C\C[C@@H]1[C@@H](CC[C@@H](O)CCc2ccccc2)[C@H](O)C[C@@H]1O)OCCCCO[N+](=O)[O-] [LATANOPROSTENE BUNOD] | > 30 µM | > 30 µM | > 30 µM | – | – | – | –
Cc1oc(=O)oc1COC(=O)[C@@H]1N2C(=O)[C@@H](NC(=O)[C@H](N)c3ccccc3)[C@H]2SC1(C)C [LENAMPICILLIN] | > 30 µM | > 30 µM | > 30 µM | – | – | – | –
COc1ccc(OC)c(C(O)C(C)N)c1 (centres undefined) [METHOXAMINE] | 0.021 µM | > 30 µM | > 30 µM | – | – | – | –
CC1(CCN2CCCCC2)C(=O)CCc2ccccc21 (centres undefined) [NEPINALONE] | > 30 µM | > 30 µM | > 30 µM | – | – | – | –
COC(=O)C[C@](O)(CCCC(C)(C)O)C(=O)O[C@@H]1C(OC)=C[C@]23CCCN2CCc2cc4c(cc2[C@H]13)OCO4 [OMACETAXINE MEPESUCCINATE] | > 30 µM | > 30 µM | > 30 µM | – | – | – | –
COc1cccc(C(=O)CCN[C@@H](C)[C@H](O)c2ccccc2)c1 [OXYFEDRINE] | > 30 µM | > 30 µM | 16.4 µM | – | – | – | –
CC[N+](C)(CC)CCOC(=O)C(O)(c1ccccc1)C1CCCCC1 (centres undefined) [OXYPHENONIUM] | > 30 µM | > 30 µM | > 30 µM | – | – | – | –
C[C@@H]1C[C@H]2[C@@H]3C[C@H](F)C4=CC(=O)C=C[C@]4(C)[C@H]3[C@@H](O)C[C@]2(C)[C@@]1(O)C(=O)CO [PARAMETHASONE] | > 30 µM | 5.1 µM | > 30 µM | – | – | – | –
CCC[C@H](N[C@@H](C)C(=O)N1[C@H](C(=O)O)C[C@@H]2CCCC[C@@H]21)C(=O)OCC [PERINDOPRIL] | > 30 µM | > 30 µM | > 30 µM | – | – | – | –
NNCCc1ccccc1 [PHENELZINE] | 11.5 µM | > 30 µM | > 30 µM | – | – | – | –
N[C@@H](Cc1ccccc1)C(=O)O [PHENYLALANINE] | > 30 µM | > 30 µM | > 30 µM | – | – | – | –
CCCn1cnc2c1c(=O)n(CCCCC(C)=O)c(=O)n2C [PROPENTOFYLLINE] | > 30 µM | > 30 µM | > 30 µM | – | – | – | –
CC(C)c1cccc(C(C)C)c1O [PROPOFOL] | – | – | – | > 30 µM | > 30 µM | > 30 µM | > 30 µM
Clc1ccc(C(Cn2ccnc2)OCc2csc3c(Cl)cccc23)c(Cl)c1 (centres undefined) [SERTACONAZOLE] | 24.3 µM | 0.831 µM | 5.39 µM | – | – | – | –
O=C1OC(OC(=O)c2cccnc2Nc2cccc(C(F)(F)F)c2)c2ccccc21 (centres undefined) [TALNIFLUMATE] | – | – | – | > 30 µM | > 30 µM | > 30 µM | > 30 µM
COc1ccc2c(C(=S)N(C)CC(=O)O)cccc2c1C(F)(F)F [TOLRESTAT] | – | > 30 µM | > 30 µM | – | – | – | –
